US20040198821A1, “Reduction of hair growth” (priority 2002, published 2004)

Columns and labels:
[1] = system: hamster flank organ hair growth (hair mass); assay: Golden Syrian hamster assay (hair mass assay); assay type: in vivo; settings: for % Inhibition of hamster hair mass / Treated (mg) hair mass: three weeks
Excerpt: Golden Syrian Hamster Assay
Male intact Golden Syrian hamsters are considered acceptable models for human beard hair growth in that they display oval shaped flank organs, one on each side, each about 8 mm. in major diameter. These organs produce fine light colored hair typical of the animal pelage found on the body. In response to androgens the flank organs produce dark coarse hair similar to male human beard hair. To evaluate the effectiveness of a composition in reducing hair growth, the flank organs of each of a group of hamsters are depilated by applying a thioglycolate based chemical depilatory (Surgex) and/or shaved. To one organ of each animal 10 μl. of vehicle alone once a day is applied, while to the other organ of each animal an equal amount of vehicle containing the compound under evaluation is applied. After three weeks of topical applications (one application per day for five days a week), the flank organs are shaved and the amount of recovered hair (hair mass) from each is weighed. Percent-reduction of hair growth is calculated by subtracting the hair mass (mg) value of the test compound treated side from the hair mass value of the vehicle treated side; the delta value obtained is then divided by the hair mass value of the vehicle treated side, and the resultant number is multiplied by 100.
The above-described assay will be referred to herein as the “Golden Syrian hamster” assay or “hair mass” assay. Preferred compositions provide a reduction in hair growth of at least about 15% and more preferably at least about 35%, when tested in the Golden Syrian hamster assay.

[2] = system: Carnitine palmitoyltransferase I (CPT I); assay: Assay of carnitine palmitoyl transferase-I (CPT-I), Method-I; assay type: biochemical; settings: inhibitor 5 mM, hamster flank organ hair follicle fraction
Protocol: Assay of Carnitine Palmitoyl Transferase-I (CPT-I)
Two different enzyme assays were used to quantify the activity of CPT-I in hair follicles:
Hair follicle rich fraction from hamster flank organs are homogenized in Buffer A (200 mM mannitol, 10 mM sucrose, 5 mM MOPS pH 7.4). The homogenate is centrifuged at 2000 rpm for 10 minutes. The supernatant is removed and centrifuged at 7000 rpm for 30 minutes. The pellet is resuspended in Buffer B (20 mM Tris-HCl, pH 7.4), 400 mM sucrose, 80 mM KCl, 2 mM EDTA, 2.6 mg/ml fatty acid free BSA). 30 μl of the resuspended pellet is added to 35 μl of DMSO or one of the inhibitors diluted in DMSO so that the final concentration is 5 mM. After a 15 min preincubation, the following are added; 35 μl of 1.7 mM palmitoyl Co-A (34% water and 66% Buffer B), 10 μl of 5 mM L-carnitine (in buffer B with 0.5 μCi ^3H-carnitine). The reaction is then placed in a 37° C. water bath for 30 minutes. At the end of 30 minutes the reaction is stopped by the addition of 150 μl cold 1N HCl. This is followed by the addition of 250μl water to each sample. Butanol (500 μl) is then added to each sample and the samples are centrifuged for 2 minutes at 10,000×g. 300 μl of the butanol layer is transferred to a new centrifuge tube and 250 μl of water is added. 200 μl of the organic phase is added to a scintillation vial containing 12 ml of scintillation cocktail. The radioactivity is determined using a scintillation counter.

3-ketoacyl-CoA thiolase = assay: Assay of 3-ketoacyl-CoA thiolase; assay type: biochemical, hamster; settings: inhibitor 0.5 mM, mitochondria preincubated 5 min
Protocol: Assay of 3-Ketoacyl-CoA Thiolase:
Aliquots of the mitochondrial suspension (50 μl) were rapidly frozen in dry ice and stored at −80° C. until enzyme activities were assayed as described below. To insure the complete disruption of mitochondria, Triton X-100 (0.06%) was added to all assay mixtures. The activity of thiolase was determined by spectrophotometrically following the disappearance of the Mg^2+-enolate complex at 303 nm. The enzyme assay was performed at 25° C. The reaction mixture contained 0.1 M Tris-HCl (pH 8.2), 25 mM MgCl2, 30 mM KCl, 0.06% Triton X-100, bovine serum albumin (0.13 mg/ml), 70 μM CoA and 33 μM acetoacetyl-CoA. Molar extinction coefficient of […] was used to calculate the rates determined with acetoacetyl-CoA.

human hair follicles = assay: Human hair follicle growth assay; assay type: cell-based
Excerpt: Human Hair Follicle Growth Assay
Tissue source—Human skin was obtained from a plastic surgeon as a by-product of face-lift procedures. Immediately after removal, the skin was placed in Williams E medium containing antibiotics and refrigerated. The Williams E medium is a commercially obtained medium which has been formulated with essential nutrients for maintaining viability of tissues or cells such as of hair follicle in an in-vitro environment.
Hair Follicle Isolation and Culture—Human hair follicles in growth phase (anagen) were isolated from face-lift tissue under a dissecting scope using a scalpel and watchmakers forceps. The skin was sliced into thin strips exposing 2-3 rows of follicles that could readily be dissected. Follicles were placed into 0.5 ml Williams E medium supplemented with 2 mM L-glutamine, 10 μg/ml insulin, 100 ng/ml hydrocortisone, 100 units penicillin, 0.1 mg/ml streptomycin and 0.25 μg/ml amphotericin B. The follicles were incubated in 24 well plates (1 follicle/well) at 37° C. in an atmosphere of 5% CO2 and 95% air. Hair follicles were video recorded in the 24-well plates under the dissecting scope under a power of 10×. Typically, hair follicle lengths were measured on day 0 (day follicles were placed in culture) and again on day 7. When testing compounds, the compound was included in the culture medium from time 0 and remained in the medium throughout the course of the experiment. The length of hair follicles was assessed using an image analysis software system (Jasc Image Robot).

[3] = system: Carnitine palmitoyltransferase I (CPT I); assay: Assay of carnitine palmitoyl transferase-I (CPT-I), Method II (isolated mitochondrial fraction); assay type: biochemical, hamster; settings: inhibitor 1 mM
Protocol: The enzyme activity of carnitine palmitoyl transferase-I (CPT-I) was also determined in the isolated mitochondrial fraction. Isolation of mitochondria from the hair follicle rich fraction of flank organs was accomplished by conventional differential centriftigation in 0.25 M sucrose, 10 mM Tris-HCl, pH 7.4 and 1 mM EDTA after tissues were homogenized by polytron homogenizer and Dounce tissue grinder. The pellet obtained at 7000 g was washed two times and finally suspended at 40-80 mg/ml. Carnitine palmitoyltransferase was measured as the rate of conversion of palmitoyl-CoA and [^3H]CH3-L-carnitine into palmitoyl-[^3H]CH3-1-carnitine. The incubation mixture initially contained 12.5 μmol of Tris-HCl (pH 7.2), 15 μmol of KCl, 3.1 μmol of KCN, 6.2 μmol of glutathione, 15 nmol of CoA, […], 2 μmol of ATP (pH 6.8) in volume of 0.425 ml. To this mixture 50 μl of mitochondria were added, followed by preincubation at 37° C. for 10 minutes in the presence or absence of the enzyme inhibitor methyl palmoxirate (dissolved in DMSO). After preincubation, the enzyme reaction was initiated by the addition of 25 μl of 2 mM palmitoyl-CoA and 25 μl of 4 mM [^3H]CH3-L-carnitine. The reaction was stopped after 30 minutes with 1 ml 1N HCl and palmitoyl-[^3H]CH3-L-carnitine was extracted into n-butanol. The radioactivity was determined using scintillation spectrometry.

[4] = 1 mM in culture medium, day 0 to day 7

CCCCCCCCCC(=O)OC(CC(=O)O)C[N+](C)(C)C.[Cl-] (racemic) [DL-decanoylcarnitine chloride]
% Inhibition of hamster hair mass ([1]; topical dose 10.0%, vehicle B): 58 ± 5%
Treated (mg) hair mass ([1]; topical dose 10.0%, vehicle B): 0.94 ± 0.12 mg

CCCCCCCCCCCCCCC(Br)C(=O)O (centres unmarked) [2-bromopalmitic acid]
% inhibition of CPT I [2]: 91%
pmol product /mg protein (CPT I activity) [2]: 0.07 pmol product /mg protein

CCCC(CCC)C(=O)O [2-propylpentanoic acid]
% Inhibition of hamster hair mass ([1]; topical dose 20.0%, vehicle A): 67 ± 3%
Treated (mg) hair mass ([1]; topical dose 20.0%, vehicle A): 2.68 ± 0.20 mg

O=C(O)/C=C/CBr [4-bromocrotonic acid]
% inhibition of 3-ketoacyl-CoA thiolase (3-ketoacyl-CoA thiolase): 85.2%
nmol product/mg protein (3-ketoacyl-CoA thiolase activity) (3-ketoacyl-CoA thiolase): 0.128 nmol product/mg protein
Hair follicle length increase (mm) (human hair follicles; 0.03 mM in culture medium, day 0 to day 7): 0.06 ± 0.06 mm
inhibition at 30 µM (human hair follicles; Homo sapiens, 0.03 mM in culture medium, day 0 to day 7): 95 ± 5%
% Inhibition of hamster hair mass ([1]; topical dose 3.0%, vehicle B): 37 ± 14%
Treated (mg) hair mass ([1]; topical dose 3.0%, vehicle B): 1.25 ± 0.37 mg

C=CCCC(=O)O [4-pentenoic acid]
% Inhibition of hamster hair mass ([1]; topical dose 10.0%, vehicle A): 46 ± 8%
Treated (mg) hair mass ([1]; topical dose 10.0%, vehicle A): 1.10 ± 0.12 mg

CC(C)(C)c1ccc(C(=O)O)cc1 [4-tert-butylbenzoic acid]
% Inhibition of hamster hair mass ([1]; topical dose 10.0%, vehicle C): 46 ± 8%
Treated (mg) hair mass ([1]; topical dose 10.0%, vehicle C): 1.10 ± 0.12 mg

CCCCc1oc2ccccc2c1C(=O)c1cc(I)c(OCCN(CC)CC)c(I)c1 [amiodarone]
% Inhibition of hamster hair mass ([1]; topical dose 7.5%, vehicle A): 44 ± 28%
Treated (mg) hair mass ([1]; topical dose 7.5%, vehicle A): 1.62 ± 0.9 mg

C/C=C/C/C=C/CCC(=O)[C@H]1O[C@H]1C(N)=O [cerulenin]
Hair follicle length increase (mm) (human hair follicles; 10 μM in culture medium, day 0 to day 7): 0.06 ± 0.05 mm
inhibition at 10 µM (human hair follicles; Homo sapiens, 10 μM in culture medium, day 0 to day 7): 93.7 ± 5.6%
inhibition of human hair follicle growth in vitro (in words) (human hair follicles; text summary of Table VII): can inhibit human hair follicle growth in vitro with marked efficacy

COc1ccc(Cl)cc1C(=O)NCCc1ccc(S(=O)(=O)NC(=O)NC2CCCCC2)cc1 [glynbenclamide]
% Inhibition of hamster hair mass ([1]; topical dose 10.0%, vehicle D): 32 ± 8%
Treated (mg) hair mass ([1]; topical dose 10.0%, vehicle D): 1.40 ± 0.32 mg
% inhibition of CPT I [2]: 100%
pmol product /mg protein (CPT I activity) [2]: 0.00 pmol product /mg protein

CC(C)(COP(=O)(O)OP(=O)(O)OC[C@H]1O[C@@H](n2cnc3c(N)ncnc32)[C@H](O)[C@@H]1OP(=O)(O)O)[C@@H](O)C(=O)NCCC(=O)NCCSC(=O)CC(=O)O [malonyl CoA]
% inhibition of CPT I [2]: 22%
pmol product /mg protein (CPT I activity) [2]: 0.59 pmol product /mg protein

CCCCCCCCCCCCCCC1(C(=O)OC)CO1 (centres unmarked) [methyl palmoxirate, methyl-2-tetradecylglycidate]
Hair follicle length increase (mm) (human hair follicles; 0.1 mM in culture medium, day 0 to day 7): 0.54 ± 0.3 mm
inhibition at 100 µM (human hair follicles; Homo sapiens, 0.1 mM in culture medium, day 0 to day 7): 57 ± 24%
% Inhibition of hamster hair mass ([1]; topical dose 2.0%, vehicle B): 66 ± 4%
Treated (mg) hair mass ([1]; topical dose 2.0%, vehicle B): 0.56 ± 0.12 mg

CCCCCCCCC1=C(CCCCCCCC(=O)OC)C1 [methyl sterculate]
% Inhibition of human hair follicle growth (human hair follicles; [4]): 59.3 ± 0.2%
Hair follicle length increase (mm) (human hair follicles; [4]): 0.59 ± 0.29 mm
reduction of hair growth in vitro (in words) (human hair follicles; text summary of Table IX): can reduce hair growth both in vivo and in vitro
reduction of hair growth in vivo (in words) ([1]; text summary of Table VIII): can reduce hair growth both in vivo and in vitro
% Inhibition of hamster hair mass ([1]; topical dose 2.5%, vehicle E): 45.1 ± 6.8%
Treated (mg) hair mass ([1]; topical dose 2.5%, vehicle E): 1.4 ± 0.2 mg

N[C@H](C(=O)O)c1ccc(O)cc1 [oxfenicine]
% inhibition of CPT I [3]: 44%
pmol product /mg protein (CPT I activity) [3]: 0.64 pmol product/mg protein

CCCCCCCCCCCCCCCC(=O)OC(CC(=O)[O-])C[N+](C)(C)C (stereo not drawn) [palmitoyl DL carnitine]
% Inhibition of hamster hair mass ([1]; topical dose 10.0%, vehicle A): 73 ± 15%
Treated (mg) hair mass ([1]; topical dose 10.0%, vehicle A): 0.29 ± 0.1 mg

C1CCC(C(CC2CCCCN2)C2CCCCC2)CC1 (centres unmarked) [perhexiline]
% Inhibition of hamster hair mass ([1]; topical dose 2.5%, vehicle B): 23 ± 25%
Treated (mg) hair mass ([1]; topical dose 2.5%, vehicle B): 2.28 ± 0.77 mg
% inhibition of CPT I [2]: 86%
pmol product /mg protein (CPT I activity) [2]: 0.10 pmol product /mg protein

CCCCNC(=O)NS(=O)(=O)c1ccc(C)cc1 [tolbutamide]
% inhibition of CPT I [2]: 90%
pmol product /mg protein (CPT I activity) [2]: 0.07 pmol product /mg protein
